± gives the expanded uncertainty stated by the source.
Experiments:
[1] = wn = mass fraction of the nth substance listed; settings: 303.15 K; for surface tension liquid-gas: Pendant drop shape; for viscosity / mass density: 100 kPa, Liquid; for viscosity: Concentric cylinders viscometry; for mass density: Vibrating tube method
[2] = for surface tension liquid-gas: Pendant drop shape; for viscosity / mass density: 101.33 kPa, Liquid; for viscosity: Concentric cylinders viscometry; for mass density: Vibrating tube method

C1CCC2=NCCC[NH+]2CC1.O=C([O-])C(F)(F)F [1,8-diazabicyclo[5.4.0]undec-7-enium trifluoroacetate] + O
[1]
Settings	mass density [kg/m3]	surface tension liquid-gas [mN/m]	viscosity [mPa·s]
w2 = 0.001118	1256.6 ± 4.2	31.98 ± 0.74	493.76 ± 18
w2 = 0.002196	1256.2 ± 4.2	32.01 ± 0.74	493.59 ± 18
w2 = 0.003948	1255.7 ± 4.2	32.06 ± 0.74	493.33 ± 18
w2 = 0.005067	1255.2 ± 4.2	32.09 ± 0.74	493.17 ± 18
w2 = 0.006935	1254.6 ± 4.2	32.14 ± 0.74	492.85 ± 18

C1CCC2=[NH+]CCCN2CC1.O=S(=O)([O-])C(F)(F)F + O
[1]
Settings	mass density [kg/m3]	surface tension liquid-gas [mN/m]	viscosity [mPa·s]
w2 = 0.001106	1352.7 ± 4.3	29.8 ± 0.7	524.23 ± 19
w2 = 0.002067	1352.2 ± 4.3	29.74 ± 0.73	524.18 ± 19
w2 = 0.003286	1351.6 ± 4.3	29.66 ± 0.73	524.11 ± 19
w2 = 0.004194	1351.1 ± 4.3	29.6 ± 0.7	524.06 ± 19
w2 = 0.005671	1350.5 ± 4.3	29.51 ± 0.72	523.99 ± 19

C1CCC2=NCCC[NH+]2CC1.CS(=O)(=O)[O-] [1,8-diazabicyclo[5.4.0]undec-7-enium methanesulfonate] + O
[1]
Settings	mass density [kg/m3]	surface tension liquid-gas [mN/m]	viscosity [mPa·s]
w2 = 0.001054	1219.8 ± 4.2	41.35 ± 0.81	1177 ± 54
w2 = 0.001987	1219.37 ± 4.2	41.43 ± 0.81	1176.8 ± 54
w2 = 0.003524	1218.75 ± 4.2	41.56 ± 0.82	1176.5 ± 54
w2 = 0.004663	1218.3 ± 4.2	41.69 ± 0.82	1176.3 ± 54
w2 = 0.005967	1217.81 ± 4.2	41.78 ± 0.82	1176.1 ± 54

C1CCC2=[NH+]CCCN2CC1.CC(=O)[O-] [2,3,4,6,7,8,9,10-octahydropyrimido[1,2-a]azepinium acetate] + O
[1]
Settings	mass density [kg/m3]	surface tension liquid-gas [mN/m]	viscosity [mPa·s]
w2 = 0.001127	1069.1 ± 4.5	35.94 ± 0.87	84.73 ± 2.2
w2 = 0.002156	1068.4 ± 4.5	35.99 ± 0.87	84.7 ± 2.2
w2 = 0.003932	1066.9 ± 4.5	36.09 ± 0.87	84.66 ± 2.2
w2 = 0.005106	1065.9 ± 4.5	36.15 ± 0.87	84.62 ± 2.2
w2 = 0.006373	1065 ± 4	36.23 ± 0.87	84.59 ± 2.2

C1CCC2=NCCC[NH+]2CC1.O=C([O-])C(F)(F)F [1,8-diazabicyclo[5.4.0]undec-7-enium trifluoroacetate]
[2]
Settings	mass density [kg/m3]	surface tension liquid-gas [mN/m]	viscosity [mPa·s]
293.15 K	1264.6 ± 4.2	32.47 ± 0.75	1193.2 ± 54
303.15 K	1256.6 ± 4.2	31.98 ± 0.74	493.76 ± 18
313.15 K	1248.9 ± 4.2	31.52 ± 0.74	236.97 ± 7
323.15 K	1241.4 ± 4.2	31.05 ± 0.74	127.92 ± 3.2
333.15 K	1234 ± 4.2	30.65 ± 0.73	75.72 ± 1.7
343.15 K	1226.6 ± 4.2	30.15 ± 0.73	48.46 ± 1.1
353.15 K	1219.2 ± 4.2	29.74 ± 0.73	32.94 ± 0.74
363.15 K	1211.9 ± 4.2	–	23.43 ± 0.53

C1CCC2=[NH+]CCCN2CC1.CC(=O)[O-] [2,3,4,6,7,8,9,10-octahydropyrimido[1,2-a]azepinium acetate]
[2]
Settings	mass density [kg/m3]	surface tension liquid-gas [mN/m]	viscosity [mPa·s]
293.15 K	1076 ± 4.1	36.88 ± 0.78	164.74 ± 4.4
303.15 K	1069.1 ± 4.1	35.94 ± 0.77	84.73 ± 2
313.15 K	1062.3 ± 4.1	34.6 ± 0.76	48.34 ± 1.1
323.15 K	1055.6 ± 4.1	33.47 ± 0.75	30.38 ± 0.69
333.15 K	1048.7 ± 4.1	32.38 ± 0.75	20.36 ± 0.46
343.15 K	1041.8 ± 4.1	31.46 ± 0.74	14.39 ± 0.33
353.15 K	1034.9 ± 4.1	30.63 ± 0.73	10.59 ± 0.24
363.15 K	1028 ± 4	–	8.052 ± 0.18

C1CCC2=[NH+]CCCN2CC1.O=S(=O)([O-])C(F)(F)F
[2]
Settings	mass density [kg/m3]	surface tension liquid-gas [mN/m]	viscosity [mPa·s]
293.15 K	1361 ± 4.3	30.39 ± 0.73	1113.1 ± 49
303.15 K	1352.7 ± 4.3	29.8 ± 0.73	524.23 ± 19
313.15 K	1344.5 ± 4.3	29.27 ± 0.72	276 ± 8.5
323.15 K	1336.7 ± 4.3	28.83 ± 0.72	158.89 ± 4.2
333.15 K	1329 ± 4.3	28.31 ± 0.72	98.25 ± 2.4
343.15 K	1321.2 ± 4.2	27.71 ± 0.71	64.4 ± 1.5
353.15 K	1313.5 ± 4.2	27.15 ± 0.71	44.29 ± 1
363.15 K	1305.9 ± 4.2	–	31.75 ± 0.72

C1CCC2=NCCC[NH+]2CC1.CS(=O)(=O)[O-] [1,8-diazabicyclo[5.4.0]undec-7-enium methanesulfonate]
[2]
Settings	mass density [kg/m3]	surface tension liquid-gas [mN/m]	viscosity [mPa·s]
293.15 K	1226.6 ± 4.2	41.84 ± 0.82	3310.1 ± 190
303.15 K	1219.8 ± 4.2	41.35 ± 0.81	1177 ± 53
313.15 K	1212.9 ± 4.2	40.49 ± 0.81	497.53 ± 18
323.15 K	1206.1 ± 4.2	39.58 ± 0.8	241.49 ± 7.2
333.15 K	1199.5 ± 4.2	38.79 ± 0.79	131.6 ± 3.3
343.15 K	1193 ± 4	38.23 ± 0.79	78.46 ± 1.8
353.15 K	1186.5 ± 4.2	37.54 ± 0.78	50.26 ± 1.1
363.15 K	1180.2 ± 4.2	–	34.12 ± 0.77

Source: the NIST ThermoML archive (doi:10.1016/j.jct.2016.10.021)
